Measurements published in patent publication US5843941A, “Ras farnesyl transferase inhibitors” (Genentech, Inc., priority 1994, dated 1998).
Like-named read-outs stand apart in the source and are kept apart here.

Assays:
[1] = test system: farnesylated proteins F1, F2 and F3 in Met18b-2 cells; test: Inhibition of intracellular farnesylation in intact Met18b-2 cells, Triton-soluble proteins F1, F2, F3; format: cell-based, Chinese hamster; settings: Cricetulus griseus, read-out: EC 90% "B isomer"
Excerpt: To study farnesylation in intact cells we used Met18b-2 cells, a line of Chinese hamster ovary (CHO) cells that takes up [3H]mevalonate efficiently (see Faust, J., and Krieger, M. J. Biol. Chem. 262, 1966 (1987)) owing to the production of a mevalonate transport protein (see Kim, C. M., Goldstein, J. L., Brown, M. S. J. Biol. Chem. 267, 23113 (1992)). The [3H]mevalonate is converted by the cells into [3H]farnesyl pyrophosphate and [3H]geranylgeranyl pyrophosphate, which are then attached to proteins (Kim, C. M., Goldstein, J. L., Brown, M. S. J. Biol. Chem. 267, 23113 (1992)). In the assay, stock cultures of Met18b-2 cells were seeded at a density of 3-105 cells per 60 mm dish in 3 ml of medium A (Dulbecco's modified Eagle medium/Ham's F12 medium (1:1, v/v) containing 100 U/ml penicillin and 100 μg/ml streptomycin) supplemented with 5% (v/v) fetal calf serum (FCS). On day 3, each monolayer was refed with 1 ml medium A supplemented with 1% FCS (dialyzed against 0.15 M NaCl). At this point the cells were treated with 100 μM compactin (see Brown, M. S., Faust, J. R., Goldstein, J. L., Kaneko, I., and Endo, A. J. Biol. Chem. 253, 1121 (1978)) which blocks the synthesis of unlabeled mevalonate within the cells. Each compound was dissolved at 25 mM in DMSO/10 mM DTT immediately before use and 10 μl of this solution added directly. After 2 hr incubation at 37° C., each monolayer received 100 μCi [3H]mevalonate (60 Ci/mmol, American Radiolabeled Chemicals, Inc.) added in 100 μl of the medium A, and the incubation continued for 4 hr. The cells were harvested by rinsing three times with 3 ml of 50 mM Tris-HCl/0.15 M NaCl (pH 7.5). 300 μl of lysis buffer (0.5X Dulbecco's phosphate-buffered saline containing 1% Triton X-100, 5 μg/ml leupeptin, 5 μg/ml pepstatin, 0.5 mM phenylmethylsulfonyl fluoride, and 0.05 U/ml aprotinin) was added to each monolayer. After incubation on ice for 5 mon, the lysates were centrifuged 30 sec in a microfuge at 12,000 g. The resulting supernatant was tranferred to a new tube, and each pellet was resuspended in 60 μl of lysis buffer. Protein concentrations were determined using the BCA protein assay reagent (Pierce) according to the manufacturer's instructions. Detergent-soluble (supernatant) and -insoluble (pellet) samples were mixed with 2X SDS sample buffer (see Laemmli, U. K. Nature 227, 680 (1970)) and heated at 95° C. for 5 min before electrophoresis. Each lane contained 90 μg protein, and was run on a 12.5% SDS-polyacrylamide gel. The gel was dried, treated with ENTENSIFY (NEN-DuPont), and exposed to Kodak XOMAT-AR film for 9 h at -80° C. to allow visualization of all prenylated proteins. Migration of [14C]methylated molecular weight standards (Amersham) were used as markers.
The results of this assay are shown in FIG. 3, using a final concentration of 250 μM for each inhibitor. […] As shown in the figure, none of the control peptides or control benzodiazepine-peptideomimetics altered the prenylation of proteins in intact cells.
Using the same cells and procedures followed above for Example 125, we measured the dose dependence upon the inhibition of farnesylation in intact cells. […] Compound 37B inhibited the famesylation of F1-3 detectably at 10 μM, and almost completely at 25 μM.
In this manner, it is possible to obtain data regarding the comparative potency of these inhibitors upon the level of intracellular farnesylation. We have chosen to report the EC90% values for these inhibitors as the concentration required for a reduction in the Triton- soluble labelling (denoted F-1, F-2, and F-3) to 90% of control cells (untreated).

CAAX farnesyltransferase = CAAX farnesyltransferase (Rattus norvegicus, UniProt Q02293+Q04631); test: In vitro inhibition of CAAX farnesyltransferase; format: biochemical; parameters: purified to homogeneity from rat brain homogenates; from tissue; host or cells: rat brain; alternatively recombinant enzyme from a baculovirus expression system; settings: Table D
How it was run: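 Native or recombinant (baculovirus-infected cells, Q-Sepharose purified) farnesyltransferase incubated 30 min at 37 °C. [3H]farnesyl transfer to p21H-ras measured by SDS/trichloroacetic acid precipitation, nitrocellulose filtration and scintillation counting.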

[2] = diastereomer A, read-out: EC50 (μM) "A"
[3] = diastereomer B, read-out: EC50 (μM) "B"

Sequence of CAAX farnesyltransferase (Q02293 whole entry, one chain of several): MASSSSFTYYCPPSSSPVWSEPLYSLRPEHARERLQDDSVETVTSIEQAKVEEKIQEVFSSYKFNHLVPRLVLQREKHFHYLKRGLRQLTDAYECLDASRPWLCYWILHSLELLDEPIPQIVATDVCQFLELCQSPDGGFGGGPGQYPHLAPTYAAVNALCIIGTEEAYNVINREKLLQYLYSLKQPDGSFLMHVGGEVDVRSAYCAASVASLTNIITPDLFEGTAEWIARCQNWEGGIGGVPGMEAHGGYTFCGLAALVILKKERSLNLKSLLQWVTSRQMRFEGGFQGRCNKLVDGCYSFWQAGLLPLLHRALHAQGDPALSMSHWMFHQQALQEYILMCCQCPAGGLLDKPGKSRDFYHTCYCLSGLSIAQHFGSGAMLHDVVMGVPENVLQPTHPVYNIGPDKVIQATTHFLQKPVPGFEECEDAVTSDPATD

Compound	EC90 [1] [µM]	EC50 (CAAX farnesyltransferase; [2]) [µM]	EC50 (CAAX farnesyltransferase; [3]) [µM]	EC50 (CAAX farnesyltransferase; EC50 (μM) "B", diastereomer B) [µM]	EC50 (CAAX farnesyltransferase; EC50 (μM) "A", diastereomer A) [µM]
COC(=O)[C@H](CCSC)NC(=O)CN1C(=O)C(N(C)C(=O)[C@@H](N)CSSC(C)(C)C)N=C(c2ccccc2)c2ccccc21 (stereo partly drawn) [compound 110, N-[[3-[(2-amino-3-tert-butylthiomercapto-1-oxopropyl)methylamino]-2,3-dihydro-2-oxo-5-phenyl-1H-1,4-benzodiazepin-1-yl]acetyl]-L-methionine methyl ester]	10	> 1.5	> 1.5	–	–
CSCC[C@H](NC(=O)CN1C(=O)C(N(C)C(=O)[C@@H](N)CSSC(C)(C)C)N=C(c2ccccc2)c2cc(Cl)ccc21)C(=O)OC1CCCCC1 (stereo partly drawn) [compound 111, N-[[3-[(2-amino-3-tert-butylthiomercapto-1-oxopropyl)methylamino]-2,3-dihydro-2-oxo-5-phenyl-7-chloro-1H-1,4-benzodiazepin-1-yl]acetyl]-L-methionine cyclohexyl ester]	2	> 3	1.4	–	–
CSCC[C@H](NC(=O)CN1C(=O)C(N(C)C(=O)[C@@H](N)CSSC(C)(C)C)N=C(c2ccccc2)c2ccccc21)C(=O)OC1CCCCC1 (stereo partly drawn) [compound 112, N-[[3-[(2-amino-3-tert-butylthiomercapto-1-oxopropyl)methylamino]-2,3-dihydro-2-oxo-5-phenyl-1H-1,4-benzodiazepin-1-yl]acetyl]-L-methionine cyclohexyl ester]	4	–	0.2	–	–
CC(C)C[C@H](NC(=O)CN1C(=O)C(N(C)C(=O)[C@@H](N)CSSC(C)(C)C)N=C(c2ccccc2)c2cc(Cl)ccc21)c1nnn[nH]1 (stereo partly drawn) [compound 114, N-[[3-[(2-amino-3-tert-butylthiomercapto-1-oxopropyl)methylamino]-2,3-dihydro-2-oxo-5-phenyl-7-chloro-1H-1,4-benzodiazepin-4-yl]acetyl]-L-leucine tetrazole]	30	–	0.12	–	–
CN(C(=O)[C@@H](N)CSSC(C)(C)C)C1N=C(c2ccccc2)c2cc(Cl)ccc2N(CC(=O)N[C@@H](Cc2ccccc2)C(N)=O)C1=O (stereo partly drawn) [compound 115, N-[[3-[(2-amino-3-tert-butylthiomercapto-1-oxopropyl)methylamino]-2,3-dihydro-2-oxo-5-phenyl-7-chloro-1H-1,4-benzazepin-1-yl]acetyl]-L-phenylalanine amide]	50	> 3	0.1	–	–
CSCC[C@H](NC(=O)CN1C(=O)C(N(C)C(=O)[C@@H](N)CSSC(C)(C)C)N=C(c2ccccc2)c2cc(Cl)ccc21)c1nnn[nH]1 (stereo partly drawn) [compound 116, N-[[3-[(2-amino-3-tert-butylthiomercapto-1-oxopropyl)methylamino]-2,3-dihydro-2-oxo-5-phenyl-7-chloro-1H-1,4-benzodiazepin-1-yl]acetyl]-L-methionine tetrazole]	60	> 3	0.03	–	–
CN(C(=O)[C@@H](N)CSSC(C)(C)C)C1N=C(c2ccccc2)c2ccccc2N(CC(=O)N[C@@H](Cc2ccccc2)C(=O)OC2CCCCC2)C1=O (stereo partly drawn) [compound 117, N-[[3-[(2-amino-3-tert-butylthiomercapto-1-oxopropyl)methylamino]-2,3-dihydro-2-oxo-5-phenyl-1H-1,4-benzodiazepin-1-yl]acetyl]-L-phenylalanine cyclohexyl ester]	3	–	–	1.6	–
CN(C(=O)[C@@H](N)CSSC(C)(C)C)C1N=C(c2ccccc2)c2cc(Cl)ccc2N(CC(=O)N[C@@H](Cc2ccccc2)c2nnn[nH]2)C1=O (stereo partly drawn) [compound 119, N-[[3-[(2-amino-3-tert-butylthiomercapto-1-oxopropyl)methylamino]-2,3-dihydro-2-oxo-5-phenyl-7-chloro-1H-1,4-benzodiazepin-1-yl]acetyl]-L-phenylalanine tetrazole]	30	> 3	0.017	–	–
CN(C(=O)[C@@H](N)CSSC(C)(C)C)C1N=C(c2ccccc2)c2cc(Cl)ccc2N(CC(=O)N[C@@H](Cc2ccccc2)C(=O)OC2CCCCC2)C1=O (stereo partly drawn) [compound 120, N-[[3-[(2-amino-3-tert-butylthiomercapto-1-oxopropyl)methylamino]-2,3-dihydro-2-oxo-5-phenyl-7-chloro-1H-1,4-benzodiazepin-1-yl]acetyl]-L-phenylalanine cyclohexyl ester]	5	–	–	> 3	> 3
